{
  "source": "patent US20240082184A1",
  "about": "“IMPROVED TREATMENT FOR GLOBOID CELL LEUKODSYTROPHY OR KRABBE DISEASE” (priority 2021, published 2024)",
  "format_in_all_cases": "in vivo",
  "key": {"GALC−/− mice [1]": {"test_system": "GALC−/− mice", "experiment": "Immunofluorescence (immunostaining) of brain sections for PLP, MFI", "conditions": "cerebellum and corpus callosum, oral, 15 days", "experimental": "After 2 weeks of treatment, mice were anesthetized and perfused with PBS (pH 7.4) and then with 4% (w/v) paraformaldehyde solution in PBS. […] Briefly, brains were incubated in PBS containing 0.05% Tween 20 (PBST) and 10% sucrose for 3 h and then 30% sucrose overnight at 4° C. Hemisected brains was then embedded in O.C.T (Tissue Tech) at −80° C. and processed for conventional cryosectioning. Frozen cerebellar and corpus callosum sections (40 micron thick) were treated with cold ethanol (−20° C.) followed by two rinses in PBS, blocking with 3% bovine serum albumin in PBST and labeling with anti-PLP antibody. After three washes in PBST, sections were further incubated with Cy5 (Jackson ImmunoResearch Laboratories, Inc.). The samples were mounted and observed under the Olympus BX41 fluorescent microscope equipped with a Hamamatsu ORCA-03G camera. Captured images were calibrated with the scale bar and then opened in ImageJ software for further quantification analysis. […] The final MFI was analyzed after subtracting the value with the background signal of respective images.\nDAPI was used to visualize nucleus. Mean fluorescence intensity (MFI) of PLP was quantified (C, cerebellum; D, corpus callosum) in two different sections of each of five mice (n=5) per group. […]"}, "GALC−/− mice [2]": {"test_system": "GALC−/− mice", "experiment": "Luxol fast blue (LFB) staining for myelin", "conditions": "cerebellum and corpus callosum, oral, 15 days", "text": "Cerebellar and corpus callosum sections of paraformaldehyde-fixed brain tissues were stained with Luxol fast blue for myelin as described elsewhere. […] FIG. 5 similarly depicts luxol fast blue (LFB) staining of myelin in the cerebellum (A) and corpus callosum (B) of GALC^−/− mice following identical treatment. Results represent analysis of two different sections of each of five mice (n=5) per group. […] FIG. 13 similarly depicts luxol fast blue (LFB) staining of myelin in the cerebellum (A) and corpus callosum (B) of GALC^−/− mice following identical treatment. Results represent analysis of two different sections of each of five mice (n=5) per group."}, "GALC−/− mice [3]": {"test_system": "GALC−/− mice", "experiment": "Open field locomotor activity", "conditions": "oral, 15 days", "experimental": "The open field test was conducted for analyzing general motor activities of mice. Locomotor activities were monitored by open field performance and footprint analysis as described in previous studies. […] Mice were placed in the center of a square wooden open field arena (40×40 cm, 30 cm high walls) and allowed to explore freely for 5 min. The movements of the mice were recorded using a camera linked to the Noldus system and EthoVisionXT software. Several parameters including velocity, total distance moved, movement/center point frequency, body elongation, etc. were analyzed to assess the general locomotor activity.\nFollowing 15 days of treatment, open field locomotor activities were measured. […] Parameters related to movement of animals were obtained from the software and presented as velocity center point (B), distance moved center point (C), movement-center point frequency (D), and body elongation (E).\nLocomotor activity was monitored as in Example 5. Following 15 days of treatment, open field locomotor activities were measured. […] Parameters related to movement of animals were obtained from the software and presented as velocity center point (B), distance moved center point (C), movement-center point frequency (D), and body elongation (E)."}, "GALC−/− mice [4]": {"test_system": "GALC−/− mice", "experiment": "Lifespan (percentage of survival, Kaplan-Meier plot)", "conditions": "oral", "excerpt": "Heterozygous animals were used only for breeding purposes and were not used in the study. Animal maintaining and experiments were in accordance with National Institute of Health guidelines and were approved by the Institutional Animal Care and Use committee of the Rush University of Medical Center, Chicago, IL. Treated and untreated mice were allowed to survive humanely as long as possible. When a mouse reached a moribund stage, it was sacrificed.\nAs discussed below, after 2 weeks of oral feeding, several parameters were monitored including locomotor activity followed by examining myelin status and glial activation in cerebellum and corpus callosum. Longevity of GALC^−/− mice after drug treatment was also examined. In that case, GALC^−/− mice were treated with the drugs daily until mice reached the moribund stage.\nMice were treated continually until they reached the moribund stage at which point they were humanely sacrificed."}, "GALC−/− mice [5]": {"test_system": "GALC−/− mice", "experiment": "Levels of myelin proteins PLP and MBP in brain by Western blot", "conditions": "gemfibrozil 8 mg/kg/d alone or with vitamin A 150 IU/kg/d"}, "GALC−/− mice [6]": {"test_system": "GALC−/− mice", "experiment": "Astroglial activation: GFAP and iNOS levels in brain by Western blot", "conditions": "gemfibrozil 8 mg/kg/d alone or with vitamin A 150 IU/kg/d, oral, 15 days"}, "[7]": {"conditions": "cerebellum, oral gavage, 15 days from 10 d of age, FIG. 2"}, "[8]": {"conditions": "corpus callosum, oral, 15 days, FIG. 3"}},
  "data": [
    {"smiles": "O=C(O)C=Cc1ccccc1", "note": "[cinnamic acid]", "values": [
      {"measurement": "myelin status by PLP immunostaining (MFI of PLP)", "setting": "GALC−/− mice [1]; cinnamic acid 25 and 50 mg/kg/day, FIG. 12", "result": "protecting myelin"},
      {"measurement": "myelin status by luxol fast blue (LFB) staining", "setting": "GALC−/− mice [2]; cinnamic acid 25 and 50 mg/kg/day, FIG. 13", "result": "protection of myelin"},
      {"measurement": "motor activity in open field versus vehicle treatment", "setting": "GALC−/− mice [3]; cinnamic acid 25 and 50 mg/kg/day, FIG. 16", "result": "increased"},
      {"measurement": "lifespan (percentage of survival)", "setting": "GALC−/− mice [4]; cinnamic acid 25 and 50 mg/kg/day, until moribund stage, FIG. 17", "result": "increases the lifespan"}
    ]},
    {"smiles": "Cc1ccc(C)c(OCCCC(C)(C)C(=O)O)c1", "note": "[gemfibrozil]", "values": [
      {"measurement": "level of MBP (MBP/Actin relative to control)", "setting": "GALC−/− mice [5]; [7]", "result": "significantly increased"},
      {"measurement": "level of PLP (PLP/Actin relative to control)", "setting": "GALC−/− mice [5]; [7]", "result": "significantly increased"},
      {"measurement": "level of MBP (MBP/Actin relative to control)", "setting": "GALC−/− mice [5]; [8]", "result": "significantly increased"},
      {"measurement": "level of PLP (PLP/Actin relative to control)", "setting": "GALC−/− mice [5]; [8]", "result": "significantly increased"},
      {"measurement": "myelin status by PLP immunostaining (MFI of PLP)", "setting": "GALC−/− mice [1]; gemfibrozil 8 mg/kg/d alone or with vitamin A 150 IU/kg/d, FIG. 4", "result": "protecting myelin"},
      {"measurement": "myelin status by luxol fast blue (LFB) staining", "setting": "GALC−/− mice [2]; gemfibrozil 8 mg/kg/d alone or with vitamin A 150 IU/kg/d, FIG. 5", "result": "protection of myelin"},
      {"measurement": "level of GFAP (GFAP/Actin relative to control)", "setting": "GALC−/− mice [6]; cerebellum, FIG. 6", "result": "significantly reduced"},
      {"measurement": "level of iNOS (iNOS/Actin relative to control)", "setting": "GALC−/− mice [6]; cerebellum, FIG. 6", "result": "significantly reduced"},
      {"measurement": "level of GFAP (GFAP/Actin relative to control)", "setting": "GALC−/− mice [6]; corpus callosum, FIG. 7", "result": "significantly reduced"},
      {"measurement": "level of iNOS (iNOS/Actin relative to control)", "setting": "GALC−/− mice [6]; corpus callosum, FIG. 7", "result": "significantly reduced"},
      {"measurement": "motor activity in open field versus vehicle treatment", "setting": "GALC−/− mice [3]; gemfibrozil 8 mg/kg/d alone or with vitamin A 150 IU/kg/d, FIG. 8", "result": "increased"},
      {"measurement": "lifespan (percentage of survival)", "setting": "GALC−/− mice [4]; gemfibrozil 8 mg/kg/d alone or with vitamin A 150 IU/kg/d, daily until moribund stage, FIG. 9", "result": "increase the lifespan"}
    ]}
  ]
}
